Test results as given in US8846745B2, “Use of an indazolemethoxyalkanoic acid for reducing triglyceride, cholesterol and glucose levels” (Aziende Chimiche Riunite Angelini Francesco A.C.R.A.F. …, priority 2006, dated 2014).

Tests used:
IL-12 = conditions: human monocytes, LPS 100 ng/ml for 4 hours, bindarit 300 μM tested as sodium salt
Protocol: The capacity of bindarit to inhibit the expression of IL-12 by human monocytes stimulated with lipopolysaccharide (LPS) was evaluated.
Human monocytes were used, which were isolated from healthy donors by centrifugation on a Ficoll gradient and purified by two successive centrifugation steps, followed by a step of isolation by means of an immunomagnetic system of negative cell separation (MACS, Miltenyi Biotech), using specific antibodies.
The cells were stimulated with LPS (100 ng/ml) for 4 hours in the presence or absence of bindarit (300 μM). The product was tested in the form of the sodium salt obtained by salification with equimolar sodium hydroxide and subsequent dilution in the medium used. The total RNA was extracted from cells using TRizol (Invitrogen Life Technologies) according to manufacturer's instructions, reverse-transcribed and prepared by GeneChip hybridization.

[1] = test system: obese Zucker rats (fa/fa); conditions: standard rodent diet supplemented with 0.5% bindarit, blood at 6, 16, 28 and 40 weeks old
Protocol: The activity of bindarit was tested in an experimental model in rats.
The study was performed on rats 5 weeks old on arrival, of the Zucker strain homozygous for the “fa” allele (fa/fa), insulin-resistant, hyperinsulinaemic and obese, and on rats of the same age of the heterozygous Zucker control strain (fa/+), phenotypically normal, insulin-sensitive and slim.
At six weeks old, the obese Zucker rats were divided into two groups, one of which was fed with a standard rodent diet, and the other with a standard rodent diet supplemented with 0.5% bindarit.
The slim Zucker rats of the same age were used as controls and fed with a standard rodent diet.
Blood samples were taken from the animals periodically (at 6, 16, 28 and 40 weeks old) for enzymatic measurement of the circulating levels of triglycerides, cholesterol and glucose.

## CC(C)(OCc1nn(Cc2ccccc2)c2ccccc12)C(=O)O [bindarit]
IL-12
  reduction of the levels of LPS-induced IL-12 specific mRNA: about 100 fold
[1]
  circulating levels of cholesterol: significant reduction
  circulating levels of triglycerides: significant reduction
  glycaemia (circulating glucose): significant reduction
